Experimental data taken from patent publication US11040947B2, “Substituted quinazolines as matrix metalloproteinase-9 hemopexin domain inhibitors” (The Research Foundation for The State University of New York, priority 2017, dated 2021).

Experiments:
[1] = target: T1, MMP-9 dimer (Homo sapiens, UniProt P14780); test: MMP-9 dimer formation, Myc/HA co-immunoprecipitation in HT1080 cells; type: cell-based; conditions: 50 μM overnight, compared to control compound 1f
T1 construct: expressed in transfected cells; host or cells: HT1080 human fibrosarcoma cells
T1 sequence (P14780 94-707): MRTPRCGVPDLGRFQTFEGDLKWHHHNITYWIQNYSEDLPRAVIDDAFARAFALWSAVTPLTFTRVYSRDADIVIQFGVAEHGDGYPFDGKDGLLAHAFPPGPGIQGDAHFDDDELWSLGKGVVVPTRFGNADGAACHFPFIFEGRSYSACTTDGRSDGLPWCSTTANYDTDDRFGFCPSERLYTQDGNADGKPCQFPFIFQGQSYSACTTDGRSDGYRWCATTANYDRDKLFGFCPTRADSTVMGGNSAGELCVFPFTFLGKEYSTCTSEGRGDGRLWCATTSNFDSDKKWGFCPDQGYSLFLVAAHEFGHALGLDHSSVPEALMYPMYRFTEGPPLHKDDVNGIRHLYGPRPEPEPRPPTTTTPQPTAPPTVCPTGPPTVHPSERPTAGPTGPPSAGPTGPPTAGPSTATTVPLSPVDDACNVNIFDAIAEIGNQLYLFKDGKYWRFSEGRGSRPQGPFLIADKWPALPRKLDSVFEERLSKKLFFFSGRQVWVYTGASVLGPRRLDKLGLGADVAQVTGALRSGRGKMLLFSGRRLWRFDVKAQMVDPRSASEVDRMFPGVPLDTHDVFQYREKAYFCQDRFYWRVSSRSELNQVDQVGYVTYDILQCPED
Source text: Human fibroscarcoma HT1080 cells were co-transfected with MMP-9 cDNAs tagged with either a Myc or HA tag as previously reported. […] Using Myc antibody for immunoprecipitation and HA antibody for immunoblotting, the formation of dimeric MMP-9 was monitored.

[2] = target: T2, APMA-activated recombinant proMMP-9 (Homo sapiens, UniProt P14780); test: MMP-9 catalytic activity with fluorogenic peptide; type: biochemical; conditions: 10 μM fluorogenic peptide, monitored over 2 hours
T2 construct: made in house
T2 sequence (P14780 107-707 limits assumed): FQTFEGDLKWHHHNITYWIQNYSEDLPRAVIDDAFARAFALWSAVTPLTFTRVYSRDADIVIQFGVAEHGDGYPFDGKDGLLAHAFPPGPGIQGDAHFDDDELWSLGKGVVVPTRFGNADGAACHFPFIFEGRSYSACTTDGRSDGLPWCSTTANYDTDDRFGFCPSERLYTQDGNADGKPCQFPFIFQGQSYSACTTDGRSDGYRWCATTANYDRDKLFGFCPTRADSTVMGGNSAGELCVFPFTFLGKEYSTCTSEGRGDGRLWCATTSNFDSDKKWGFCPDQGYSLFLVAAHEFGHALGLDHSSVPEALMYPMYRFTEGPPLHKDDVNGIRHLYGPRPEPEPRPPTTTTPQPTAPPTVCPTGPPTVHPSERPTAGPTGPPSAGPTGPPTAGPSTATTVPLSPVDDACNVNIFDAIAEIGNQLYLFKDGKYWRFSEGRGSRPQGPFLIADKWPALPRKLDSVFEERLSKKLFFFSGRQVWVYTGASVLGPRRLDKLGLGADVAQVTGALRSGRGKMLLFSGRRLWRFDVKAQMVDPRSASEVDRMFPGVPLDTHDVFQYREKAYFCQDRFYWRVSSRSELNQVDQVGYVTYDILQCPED
Description: Recombinant proMMP-9 protein was purified and incubated overnight in a 37° C. water bath in TNC buffer+1 mM APMA to artificially activate the protein.

[3] = system: MMP-9 at the cell surface of HT1080 cells; test: MMP-9 cell surface localization, immunofluorescence in HT1080 cells; type: cell-based, Human
Description: HT1080 cells were fixed in 4% paraformaldehyde then subsequently incubated with anti-MMP-9 in addition to anti-α4 and/or β1 integrin antibodies to monitor relative levels of localization of these proteins at the cell surface. The cells were counterstained with DAPI nuclear dye.

[4] = target: T3, proMMP-9 (Homo sapiens, UniProt P14780); test: proMMP-9 tryptophan fluorescence blue shift binding assay
T3 construct: Purified recombinant MMP-9 (50 nmol/L) or MMP-9/MMP-2PEX (50 nmol/L) was diluted in buffer
T3 sequence (P14780 20-707 limits assumed): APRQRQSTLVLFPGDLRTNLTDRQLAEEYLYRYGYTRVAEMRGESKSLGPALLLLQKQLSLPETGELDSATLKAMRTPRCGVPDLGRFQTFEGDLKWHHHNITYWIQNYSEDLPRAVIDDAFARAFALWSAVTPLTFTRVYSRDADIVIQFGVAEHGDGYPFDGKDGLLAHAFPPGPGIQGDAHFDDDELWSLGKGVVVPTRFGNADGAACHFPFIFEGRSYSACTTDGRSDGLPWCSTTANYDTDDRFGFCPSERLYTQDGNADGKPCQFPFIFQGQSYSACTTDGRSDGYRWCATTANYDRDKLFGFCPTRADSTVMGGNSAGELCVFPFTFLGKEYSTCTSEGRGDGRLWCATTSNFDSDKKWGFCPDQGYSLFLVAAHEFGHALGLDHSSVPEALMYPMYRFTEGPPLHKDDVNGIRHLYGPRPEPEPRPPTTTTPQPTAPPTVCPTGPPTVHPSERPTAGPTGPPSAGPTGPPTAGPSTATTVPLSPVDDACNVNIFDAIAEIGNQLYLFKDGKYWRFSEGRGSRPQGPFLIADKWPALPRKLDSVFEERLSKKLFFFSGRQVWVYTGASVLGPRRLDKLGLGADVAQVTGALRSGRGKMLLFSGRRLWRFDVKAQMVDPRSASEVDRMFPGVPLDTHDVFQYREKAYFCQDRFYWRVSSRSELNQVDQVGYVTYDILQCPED
Description: A blue shift in proMMP-9 tryptophan fluorescence was monitored to determine the binding affinity of all compounds. Binding of a test compound to MMP-9 was assayed by observing the change of tryptophan emission upon binding. Purified recombinant MMP-9 (50 nmol/L) or MMP-9/MMP-2PEX (50 nmol/L) was diluted in buffer (50 mmol/L Tris-HCl, 60 mmol/L KCl, and 0.05% Tween 20, pH 7.4) in the presence or absence of the test compound. As a control for protein stability and loss, an analogous buffer solution was added to the protein. The protein sample was excited at 280 nm and emission scans were collected from 290 to 400 nm, using slit widths of 0.3 nm on a QM 4/200SE spectrofluorimeter with double excitation and emission monochromators. Three emission scans were collected and averaged at each concentration. The Kd was determined using the Prism software package (GraphPad V5) to fit the data to Equation (Δ). λmax=(λmax^∞×[2])/(Kd+[2]) (A) in which λmax is the wavelength at which maximal fluorescence of the protein was observed.

[5] = system: proMMP-2-mediated migration of COS-1 cells; test: two-dimensional dot migration assay, COS-1 cells stably expressing proMMP-2; type: cell-based
Description: (§1) To test whether compound 3c is specific for inhibiting only proMMP9-mediated migration, a two-dimensional dot migration assay was performed using COS-1 cells engineered to stably express vector control pQCXIP, proMMP-2, proMMP-9, or proMMP-14 cDNA vectors. An immunoblot was performed to confirm protein expression and proper localization of each MMP (MMP-2/-9 are secreted while MMP-14 is membrane bound).

[6] = target: T4, MMP-9 interaction with α4/β1 integrin (Homo sapiens, UniProt P14780); test: co-immunoprecipitation of endogenous integrin with MMP-9 in HT1080 cells; type: cell-based; conditions: 50 μM
T4 construct: expressed in transfected cells; host or cells: HT1080 cells (MMP-9 transfected; integrin endogenous)
T4 sequence (P14780 94-707): as the sequence (P14780 94-707) above
Description: HT1080 cells transiently co-transfected with tagged MMP-9 cDNAs were prepared as described above.

[7] = system: proMMP-14-mediated migration of COS-1 cells; test: two-dimensional dot migration assay, COS-1 cells stably expressing proMMP-14; type: cell-based
Description: as §1

Structure (SMILES): O=C(CCCSc1nc2c(c(=O)[nH]1)CCCC2)Nc1ccc(F)cc1 [Compound 3c, N-(4-Fluorophenyl)-4-(4-oxo-3,4,5,6,7,8-hexahydroquinazolin-2-ylthio)butanamide]
- MMP-9 dimer formation [1]: significantly blocked MMP-9 dimer formation
- inhibition of MMP-9 catalytic activity [2]: No inhibition of the catalytic activity was observed
- localization of MMP-9 on the cell surface [3]: loss of MMP-9 from the cell surface
- binding to proMMP-9 relative to parent compound 1a ([4]; Kd compared with 1a): four times tighter
- Kd ([4]; binding to proMMP-9, tryptophan fluorescence): 320 nM
- inhibition of proMMP-2-mediated migration [5]: only inhibited proMMP9-mediated migration
- endogenous α4β3 integrin co-immunoprecipitation [6]: reduced endogenous α4β3 integrin co-immunoprecipitation
- inhibition of proMMP-14-mediated migration [7]: only inhibited proMMP9-mediated migration
